Assay results from paper PMC12658631, “Synthesis and Antitrypanosomal Activity of Novel 2‑Nitroimidazole-3,5-Disubstituted Isoxazole Derivatives with Diaryl Ether and Thioether Substituents” (ACS Omega, 2025).
Like-named read-outs stand apart in the source and are kept apart here.

What was measured:
[1] = test system: T. cruzi intracellular amastigotes (Tulahuen lacZ strain); test: Antitrypanosomal assay, intracellular amastigotes in LLC-MK2 cells, CPRG readout; assay type: cell-based, Trypanosoma cruzi; details: for IC50: Trypanosoma cruzi, read-out: Amastigote IC50 (μM ± SD); for activity category (active / moderately active / inactive): category by amastigote IC50
Procedure: (§1) The cytotoxicity evaluation and the determination of the selectivity index (SI) were done on LLC-MK2 cells.
Initially, 5 × 10^3 LLC-MK2 cells/well were infected with trypomastigotes in 96-well plates at a parasite/cell ratio of 10:1. After 48 h, plates were washed twice with PBS before adding compounds in a serial dilution range of 100 μM to 0.78 μM in fresh RPMI 1640 medium (Sigma-Aldrich). As a control, infected untreated cells (100% infection control) were employed. Following 72 h of incubation, amastigote viability tests were performed using 50 μL of PBS containing 2% Triton X-100 and 200 μM CPRG. Tulahuen lacZ strain expressing galactosidase enzyme were used, which catalyzes the yellow reagent of CPRG into a red chromophore that can be easily detected by absorbance at 570 nm after 4 h at 37 °C (microplate reader – Synergy H1). The percentage of amastigotes inhibition (IC50) was calculated as 100-(absorbance of treated infected cells)/(absorbance mean of untreated infected cells) × 100.

Cytotoxicity assay (MTT) = assay type: cell-based; details: rhesus monkey, LLC-MK2 cells, read-out: LLC-MK2 CC50 (μM ± SD)
Procedure: as §1
To assess chemical cytotoxicity, MTT (3-(4,5-Dimethyl-2-thiazolyl)-2,5-diphenyl-2H-tetrazolium bromide, Sigma-Aldrich)-based kit reagents were employed. LLC-MK2 cells were incubated in 96-well plates for 48 h at a concentration of 5 × 10^3 cells/well. Cells were then washed twice with PBS (Sigma-Aldrich) before being incubated with compounds in a serial dilution from 200 μM to 1.56 μM in fresh RPMI 1640 medium (Sigma-Aldrich). After 72 h, 50 μL of MTT solution (2.0 mg/mL) was added to each well, and the plates were incubated for another 4 h at 37 °C. The resultant formazan crystals were dissolved in DMSO (50 μ L/well) and measured at 570 nm 30 min later in a Synergy H1 microplate reader. Cytotoxic concentration of 50% (CC50) was calculated based on a dose–response curve excluding DMSO cytotoxicity (>1%) of the untreated control.

[2] = test system: T. cruzi amastigote forms; details: triazole with diphenyl ether substituent; ref Assunção et al.; read-out: IC50 against T. cruzi amastigote forms; cited from earlier work
[3] = LLC-MK2, T. cruzi intracellular amastigotes, Tulahuen lacZ strain, 72 h incubation
[4] = ratio of amastigote IC50 values

SMILES | SI, selectivity index: CC50 of LLC-MK2 cells/IC50 of intracellular amastigotes [1] | IC50 [1, 3] [µM] | CC50 at 72 h (Cytotoxicity assay (MTT)) [µM] | other results
O=C(Cn1ccnc1[N+](=O)[O-])NCc1ccccc1 [BZN, benznidazole, reference compound] | >17.6 | 5.67 ± 0.83 | > 100 | 
O=[N+]([O-])c1nccn1Cc1cn(-c2ccc(Oc3ccccc3)cc2)nn1 [Compound 4b] |  |  |  | IC50 [2]: 6.6 µM
O=[N+]([O-])c1nccn1Cc1cc(-c2ccc(Oc3ccccc3)cc2)no1 [Compound 6a, 5-((2-Nitro-1H-imidazol-1-yl)methyl)-3-(4-phenoxyphenyl)isoxazole] | >82.2 | 1.22 ± 0.73 | > 100 | fold more active than the reference drug benznidazole (BZN) [1, 4]: 4.6 fold; fold more active against amastigote forms than its triazole analog ([1]; ratio of amastigote IC50 values, comparator is a literature value): 5.4 fold
O=[N+]([O-])c1nccn1Cc1cc(-c2ccc(Oc3ccc(F)cc3)cc2)no1 [Compound 6b, 3-(4-(4-Fluorophenoxy)phenyl)-5-((2-nitro-1H-imidazol-1-yl)methyl)isoxazole] | >199.4 | 0.5 ± 0.51 | > 100 | 
O=[N+]([O-])c1nccn1Cc1cc(-c2ccc(Oc3ccc(Cl)cc3)cc2)no1 [Compound 6c, 3-(4-(4-Chlorophenoxy)phenyl)-5-((2-nitro-1H-imidazol-1-yl)methyl)isoxazole] | >99.0 | 1.01 ± 1.13 | > 100 | fold less active than 6b [1, 4]: 2 fold
O=[N+]([O-])c1nccn1Cc1cc(-c2ccc(Oc3ccc(Cl)c(Cl)c3)cc2)no1 [Compound 6d, 3-(4-(3,4-Dichlorophenoxy)phenyl)-5-((2-nitro-1H-imidazol-1-yl)methyl)isoxazole] | >35.9 | 2.79 ± 0.93 | > 100 | activity category (active / moderately active / inactive) [1]: active
O=[N+]([O-])c1nccn1Cc1cc(-c2ccc(Oc3ccc(OC(F)(F)F)cc3)cc2)no1 [Compound 6e, 5-((2-Nitro-1H-imidazol-1-yl)methyl)-3-(4-(4-(trifluoromethoxy)phenoxy)phenyl)isoxazole] | >80.1 | 1.25 ± 0.71 | > 100 | 
Cc1ccc(Oc2ccc(-c3cc(Cn4ccnc4[N+](=O)[O-])on3)cc2)cc1 [Compound 6f, 5-((2-Nitro-1H-imidazol-1-yl)methyl)-3-(4-(P-tolyloxy)phenyl)isoxazole] | >56.5 | 1.77 ± 0.24 | > 100 | 
COc1ccc(Oc2ccc(-c3cc(Cn4ccnc4[N+](=O)[O-])on3)cc2)cc1 [Compound 6g, 3-(4-(4-Methoxyphenoxy)phenyl)-5-((2-nitro-1H-imidazol-1-yl)methyl)isoxazole] | >155.3 | 0.64 ± 0.05 | > 100 | 
O=[N+]([O-])c1nccn1Cc1cc(-c2ccc(Oc3ccccc3)c(F)c2)no1 [Compound 6h, 3-(3-Fluoro-4-phenoxyphenyl)-5-((2-nitro-1H-imidazol-1-yl)methyl)isoxazole] | >31.4 | 3.18 ± 2.18 | > 100 | activity category (active / moderately active / inactive) [1]: active
O=[N+]([O-])c1nccn1Cc1cc(-c2ccc(Oc3ccc(F)cc3)c(F)c2)no1 [Compound 6i, 3-(3-Fluoro-4-(4-fluorophenoxy)phenyl)-5-((2-nitro-1H-imidazol-1-yl)methyl)isoxazole] | >70.4 | 1.42 ± 0.42 | > 100 | fold less active than 6b [1, 4]: 2.8 fold
O=[N+]([O-])c1nccn1Cc1cc(-c2ccc(Oc3ccc(Cl)cc3)c(F)c2)no1 [Compound 6j, 3-(4-(4-Chlorophenoxy)-3-fluorophenyl)-5-((2-nitro-1H-imidazol-1-yl)methyl)isoxazole] | >64.1 | 1.56 ± 0.69 | > 100 | 
O=[N+]([O-])c1nccn1Cc1cc(-c2ccc(Oc3ccc(Cl)c(Cl)c3)c(F)c2)no1 [Compound 6k, 3-(4-(3,4-Dichlorophenoxy)-3-fluorophenyl)-5-((2-nitro-1H-imidazol-1-yl)methyl)isoxazole] | >11.8 | 8.5 ± 2.06 | > 100 | activity category (active / moderately active / inactive) [1]: moderate activity
O=[N+]([O-])c1nccn1Cc1cc(-c2ccc(Oc3ccc(OC(F)(F)F)cc3)c(F)c2)no1 [Compound 6l, 3-(3-Fluoro-4-(4-(trifluoromethoxy)phenoxy)phenyl)-5-((2-nitro-1H-imidazol-1Yl)methyl)isoxazole] | >14.7 |  |  | IC50 ([1]; TULAHUEN, LLC-MK2, 72 h): 3.77 ± 0.07 µM
Cc1ccc(Oc2ccc(-c3cc(Cn4ccnc4[N+](=O)[O-])on3)cc2F)cc1 [Compound 6m, 3-(3-Fluoro-4-(P-tolyloxy)phenyl)-5-((2-nitro-1H-imidazol-1-yl)methyl)isoxazole] | >13.5 | 7.41 ± 3.22 | > 100 | fold less active than 6f [1, 4]: 4 fold
COc1ccc(Oc2ccc(-c3cc(Cn4ccnc4[N+](=O)[O-])on3)cc2F)cc1 [Compound 6n, 3-(3-Fluoro-4-(4-methoxyphenoxy)phenyl)-5-((2-nitro-1H-imidazol-1-yl)methyl)isoxazole] | >28.2 | 3.54 ± 0.21 | > 100 | fold less activity than 6g [1, 4]: 5.5 fold
O=[N+]([O-])c1nccn1Cc1cc(-c2ccc(Sc3ccccc3)cc2)no1 [Compound 6o, 5-((2-Nitro-1H-imidazol-1-yl)methyl)-3-(4-(phenylthio)phenyl)isoxazole] | >4.9 | 20.6 ± 0.98 | > 100 | activity category (active / moderately active / inactive) [1]: moderate activity
O=[N+]([O-])c1nccn1Cc1cc(-c2ccc(Sc3ccc(Cl)cc3)cc2)no1 [Compound 6p, 3-(4-((4-Chlorophenyl)thio)phenyl)-5-((2-nitro-1H-imidazol-1-yl)methyl)isoxazole] | >9.0 | 11.1 ± 0.16 | > 100 | 
Cc1ccc(Sc2ccc(-c3cc(Cn4ccnc4[N+](=O)[O-])on3)cc2)cc1 [Compound 6q, 5-((2-Nitro-1H-imidazol-1-yl)methyl)-3-(4-(P-tolylthio)phenyl)isoxazole] | >5.8 | 17.1 ± 0.24 | > 100 | activity category (active / moderately active / inactive) [1]: moderate activity
